Results from PubChem BioAssay (NCI).
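Interpolation was linear, between the two tested concentrations surrounding the appropriate level; five concentrations were tested over 48 hours in 96-well plates. GI50: concentration for 50% inhibition of growth. TGI: total growth inhibition.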

How the values were obtained:
Assay in all cases: inhibition of tumour cell growth, NCI panel, 48 h
[1] = test system: A498 renal
[2] = test system: A549 NSCLC
[3] = test system: ACHN renal
[4] = test system: BT-549 breast
[5] = test system: CAKI-1 renal
[6] = test system: CCRF-CEM leukemia
[7] = test system: DU-145 prostate
[8] = test system: EKVX NSCLC
[9] = test system: HCC-2998 colon
[10] = test system: HCT-116 colon
[11] = test system: HCT-15 colon
[12] = test system: HL-60(TB) leukemia
[13] = test system: HOP-62 NSCLC
[14] = test system: HOP-92 NSCLC
[15] = test system: HS 578T breast
[16] = test system: IGROV1 ovarian
[17] = test system: K-562 leukemia
[18] = test system: KM12 colon
[19] = test system: LOX IMVI melanoma
[20] = test system: M14 melanoma
[21] = test system: MALME-3M melanoma
[22] = test system: MCF7 breast
[23] = test system: MDA-MB-231 breast
[24] = test system: MDA-MB-435
[25] = test system: MDA-MB-468 breast
[26] = test system: MOLT-4 leukemia
[27] = test system: NCI-H226 lung
[28] = test system: NCI-H23 lung

Work on CCN1CCN(Cc2ccc(C(=O)Nc3cccc(Nc4ccc5c(OC)cccc5n4)c3)cc2C(F)(F)F)CC1 yielded a GI50 [1] of 11.8 µM, a TGI [1] of 24.9 µM and a GI50 [2] of 2.5 µM. It also gave a TGI [2] of 11.4 µM, a GI50 [3] of 1.85 µM and a TGI [3] of 4.32 µM. It also gave a GI50 [4] of 5.35 µM, a TGI [4] of 17.4 µM and a GI50 [5] of 1.46 µM. For the same compound, the TGI [5] was 3.19 µM, the GI50 [6] was 1.97 µM and the TGI [6] was 5.38 µM. The GI50 [7] was 2.55 µM, the TGI [7] was 9.25 µM and the GI50 [8] was 4.06 µM. The TGI [8] was 15.3 µM, the GI50 [9] was 1.59 µM and the TGI [9] was 2.89 µM. The GI50 [10] was 1.45 µM, the TGI [10] was 2.64 µM and the GI50 [11] was 1.58 µM. The TGI [11] was 3.29 µM, the GI50 [12] was 1.57 µM and the TGI [12] was 4.84 µM. It also gave a GI50 [13] of 3.67 µM, a TGI [13] of 17.6 µM and a GI50 [14] of 1.58 µM. It also gave a TGI [14] of 5.27 µM, a GI50 [15] of 1.96 µM and a TGI [15] of 6.98 µM. The GI50 [16] was 3.09 µM, the TGI [16] was 11.2 µM and the GI50 [17] was 2.11 µM. The TGI [17] was 86.8 µM, the GI50 [18] was 2.2 µM and the TGI [18] was 5.62 µM. It also gave a GI50 [19] of 1.45 µM, a TGI [19] of 2.65 µM and a GI50 [20] of 1.47 µM. The TGI [20] was 2.72 µM, the GI50 [21] was 1.44 µM and the TGI [21] was 2.63 µM. The GI50 [22] was 1.5 µM, the TGI [22] was 3.5 µM and the GI50 [23] was 1.54 µM. For the same compound, the TGI [23] was 3.05 µM, the GI50 [24] was 1.36 µM and the TGI [24] was 2.82 µM. For the same compound, the GI50 [25] was 1.6 µM, the TGI [25] was 4.53 µM and the GI50 [26] was 1.23 µM. It also gave a TGI [26] of 5.05 µM, a GI50 [27] of 5.52 µM and a TGI [27] of 18.3 µM. It also gave a GI50 [28] of 2.37 µM and a TGI [28] of 7.03 µM.
